According to patent US8536214B2, “Indane derivatives as AMPA receptor modulators” (priority 2008, dated 2013):

Target: T1, AMPA (GluR1) receptor (Homo sapiens, UniProt P42261)
T1 construct: expressed in transfected cells; host or cells: HEK cells (HEK.GluR1(i)), kept under hygromycin selection
Experiment: Ca2+ influx fluorescence assay (FLEXstation, Fluo-3)
Assay type: cell-based
Conditions: HEK.GluR1(i) cells, glutamate +/- test compound, Ca2+ influx measured with fluo3; read-out: EC50, positive modulation of the AMPA receptor
Source text: The compounds in this invention may be tested using a biological assay which measures Ca^2+ influx mediated through positive modulation of the AMPA (GluR1) receptor using standard techniques in the art such as, but not limited to, a FLEXstation (manufactured by Molecular Devices, Sunnyvale, Calif.). An optical readout using fluorescent probes is employed to measure ion channel dependent changes in intracellular ion concentration or membrane potential. The assay utilises the Ca^2+ conductance of functional homomeric GluR1(i) AMPA receptors to generate glutamate-dependent Ca^2+ responses. Influx of Ca^2+ through the ion channel is measured indirectly through an increase in intracellular Ca^2+ levels using the calcium sensitive dye such as, but not limited to, Fluo-3 (Molecular Devices, Sunnyvale, Calif.) in FLEXstation. A positive AMPA receptor modulator, in the presence of glutamate, will result in an influx of Ca^2+ through the ion channel which can be measured indirectly through an increase in intracellular Ca2+ levels using the calcium sensitive dye Fluo-3 in FLEXstation.
HEK.GluR1(i) cells were maintained in DMEM supplemented with 10% fetaclone II, 1% non-essential amino acids and 150 μg/mL hygromycin, at 37° C./5% CO2. […]

T1 sequence (P42261 19-906 isoform P42261-2 limits assumed, species assumed): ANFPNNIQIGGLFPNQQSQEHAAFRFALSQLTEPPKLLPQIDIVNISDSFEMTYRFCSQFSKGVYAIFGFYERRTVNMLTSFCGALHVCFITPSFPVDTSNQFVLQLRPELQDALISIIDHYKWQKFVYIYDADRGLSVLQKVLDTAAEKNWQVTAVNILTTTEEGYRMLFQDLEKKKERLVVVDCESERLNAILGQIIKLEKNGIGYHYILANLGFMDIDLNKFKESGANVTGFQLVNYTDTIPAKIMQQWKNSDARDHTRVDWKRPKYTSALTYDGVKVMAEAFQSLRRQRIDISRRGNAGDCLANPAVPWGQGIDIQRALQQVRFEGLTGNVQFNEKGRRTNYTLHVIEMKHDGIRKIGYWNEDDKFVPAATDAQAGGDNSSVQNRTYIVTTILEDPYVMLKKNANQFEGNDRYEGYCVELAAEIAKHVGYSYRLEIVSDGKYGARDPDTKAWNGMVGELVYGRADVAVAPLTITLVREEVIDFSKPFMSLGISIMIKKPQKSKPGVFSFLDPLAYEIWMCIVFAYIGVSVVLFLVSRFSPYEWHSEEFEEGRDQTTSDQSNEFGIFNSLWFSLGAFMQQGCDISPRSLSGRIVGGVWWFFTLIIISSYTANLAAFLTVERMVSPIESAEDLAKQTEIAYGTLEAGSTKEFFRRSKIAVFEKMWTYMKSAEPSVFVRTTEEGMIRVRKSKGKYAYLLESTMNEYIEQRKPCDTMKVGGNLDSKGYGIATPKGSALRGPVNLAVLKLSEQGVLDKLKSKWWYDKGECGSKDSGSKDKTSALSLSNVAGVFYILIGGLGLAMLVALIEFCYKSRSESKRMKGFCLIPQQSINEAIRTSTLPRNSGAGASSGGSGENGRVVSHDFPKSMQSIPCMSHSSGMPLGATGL

EC50: 2500 nM
Compound: O=S(=O)(N[C@H]1Cc2ccc(Cn3cc(CO)c(C(F)(F)F)n3)cc2C1)c1ccco1 [Example 18, (S)—N-(5-((4-(hydroxymethyl)-3-(trifluoromethyl)-1H-pyrazol-1-yl)methyl)-2,3-dihydro-1H-inden-2-yl)furan-2-sulfonamide]
